Reference: patent US10611731B2, “5-methyl-6-phenyl-4,5-dihydro-2H-pyridazin-3-one derivative” (OTSUKA PHARMACEUTICAL CO., LTD., priority 2016, dated 2020)
pIC50: −log10 of the molar value.

What follows are compounds tested on human childhood brain tumor cell lines (PFSK-1) (assay: Growth inhibitory activity against PFSK-1 cells (WST-8, Cell Counting Kit-8)). Conditions: Homo sapiens, 72 h, 3 days incubation with test compound, WST-8 OD 450/630 nm, read-out: IC50 (concentration inhibiting 50% of the cell growth).
Format: cell-based
Summary of the method: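 Cells seeded in RPMI 1640 with 10% FBS and preincubated 24 h at 37 °C, 5% CO2, then exposed to compound for 3 days. IC50 (nM) from growth relative to untreated control.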

pIC50 | Compound
8.70 | CC1CC(=O)NN=C1c1cc(F)c(OCCCO)c(Cl)c1F (centres unmarked) [Example 140, 6-[3-chloro-2,5-difluoro-4-(3-hydroxypropoxy)phenyl]-5-methyl-4,5-dihydro-2H-pyridazin-3-one]
8.34 | Cc1cc(C2=NNC(=O)CC2C)c(F)c(C)c1OCCCO (centres unmarked) [Example 141, 6-[2-Fluoro-4-(3-hydroxypropoxy)-3,5-dimethylphenyl]-5-methyl-4,5-dihydro-2H-pyridazin-3-one]
9.00 | Cc1cc(C2=NNC(=O)CC2C)cc(Cl)c1OCC(C)CO (centres unmarked) [Example 142, 6-[3-chloro-4-(3-hydroxy-2-methylpropoxy)-5-methylphenyl]-5-methyl-4,5-dihydro-2H-pyridazin-3-one]
8.38 | Cc1cc(C2=NNC(=O)CC2C)cc(Cl)c1OCC1(CO)CC1 (centres unmarked) [Example 144, 6-{3-Chloro-4-[1-(hydroxymethyl)cyclopropylmethoxy]-5-methylphenyl}-5-methyl-4,5-dihydro-2H-pyridazin-3-one]
8.15 | CC1CC(=O)NN=C1c1ccc(OCC2(CO)CC2)c(F)c1F (centres unmarked) [Example 145, 6-{2,3-Difluoro-4-[1-(hydroxymethyl)cyclopropylmethoxy]phenyl}-5-methyl-4,5-dihydro-2H-pyridazin-3-one]
8.12 | Cc1c(F)c(C2=NNC(=O)CC2C)cc(Cl)c1OCC(C)O (centres unmarked) [Example 147, 6-[5-Chloro-2-fluoro-4-(2-hydroxypropoxy)-3-methylphenyl]-5-methyl-4,5-dihydro-2H-pyridazin-3-one]
> 9.00 | Cc1cc(C2=NNC(=O)CC2C)c(F)c(Cl)c1OCC(C)O (centres unmarked) [Example 148, 6-[3-Chloro-2-fluoro-4-(2-hydroxypropoxy)-5-methylphenyl]-5-methyl-4,5-dihydro-2H-pyridazin-3-one]
8.44 | CC(O)COc1c(F)cc(C2=NNC(=O)CC2C)c(F)c1Cl (centres unmarked) [Example 149, 6-[3-Chloro-2,5-difluoro-4-(2-hydroxypropoxy)phenyl]-5-methyl-4,5-dihydro-2H-pyridazin-3-one]
8.43 | Cc1cc(C2=NNC(=O)CC2C)c(F)c(C)c1OC/C=C\CO (centres unmarked) [Example 150, 6-{2-Fluoro-4-[(Z)-4-hydroxy-2-butenyloxy]-3,5-dimethylphenyl}-5-methyl-4,5-dihydro-2H-pyridazin-3-one]
8.89 | Cc1cc(C2=NNC(=O)CC2C)c(F)c(Cl)c1OC/C=C\CO (centres unmarked) [Example 151, 6-{3-Chloro-2-fluoro-4-[(Z)-4-hydroxy-2-butenyloxy]-5-methylphenyl}-5-methyl-4,5-dihydro-2H-pyridazin-3-one]
8.47 | CC1CC(=O)NN=C1c1cc(F)c(OC/C=C\CO)c(Cl)c1F (centres unmarked) [Example 152, 6-{3-Chloro-2,5-difluoro-4-[(Z)-4-hydroxy-2-butenyloxy]phenyl}-5-methyl-4,5-dihydro-2H-pyridazin-3-one]
8.28 | Cc1c(OC/C=C\CO)ccc(C2=NNC(=O)CC2C)c1O (centres unmarked) [Example 153, 6-{2-Hydroxy-4-[(Z)-4-hydroxy-2-butenyloxy]-3-methylphenyl}-5-methyl-4,5-dihydro-2H-pyridazin-3-one]
8.37 | Cc1c(F)c(C2=NNC(=O)CC2C)cc(Cl)c1OCC(F)(F)CO (centres unmarked) [Example 158, 6-[5-Chloro-4-(2,2-difluoro-3-hydroxypropoxy)-2-fluoro-3-methylphenyl]-5-methyl-4,5-dihydro-2H-pyridazin-3-one]
> 9.00 | Cc1cc(C2=NNC(=O)CC2C)c(F)c(Cl)c1OCC(F)(F)CO (centres unmarked) [Example 159, 6-[3-Chloro-4-(2,2-difluoro-3-hydroxypropoxy)-2-fluoro-5-methylphenyl]-5-methyl-4,5-dihydro-2H-pyridazin-3-one]
8.72 | Cc1cc(C2=NNC(=O)CC2C)c(F)c(C)c1OCC(F)(F)CO (centres unmarked) [Example 160, 6-[4-(2,2-Difluoro-3-hydroxypropoxy)-2-fluoro-3,5-dimethylphenyl]-5-methyl-4,5-dihydro-2H-pyridazin-3-one]
8.57 | CC1CC(=O)NN=C1c1cc(F)c(OCC(F)(F)CO)c(Cl)c1F (centres unmarked) [Example 161, 6-[3-Chloro-4-(2,2-difluoro-3-hydroxypropoxy)-2,5-difluorophenyl]-5-methyl-4,5-dihydro-2H-pyridazin-3-one]
8.19 | CC1CC(=O)NN=C1c1ccc(OCC(F)(F)CO)c(Cl)c1O (centres unmarked) [Example 162, 6-[3-Chloro-4-(2,2-difluoro-3-hydroxypropoxy)-2-hydroxyphenyl]-5-methyl-4,5-dihydro-2H-pyridazin-3-one]

pIC50 | Compound
8.31 | Cc1cc(C2=NNC(=O)CC2C)c(O)c(Cl)c1OCC(C)O (centres unmarked) [Example 164, 6-[3-Chloro-2-hydroxy-4-(2-hydroxypropoxy)-5-methylphenyl]-5-methyl-4,5-dihydro-2H-pyridazin-3-one]
8.59 | CC1CC(=O)NN=C1c1cc(Cl)c(OCC2(O)CC2)c(Br)c1 (centres unmarked) [Example 165, 6-{3-bromo-5-chloro-4-[(1-hydroxycyclopropyl)methoxy]phenyl}-5-methyl-4,5-dihydro-2H-pyridazin-3-one]
8.33 | Cc1c(OCC2(O)CC2)ccc(C2=NNC(=O)CC2C)c1O (centres unmarked) [Example 166, 6-{2-Hydroxy-4-[(1-hydroxycyclopropyl)methoxy]-3-methylphenyl}-5-methyl-4,5-dihydro-2H-pyridazin-3-one]
8.89 | Cc1cc(C2=NNC(=O)CC2C)c(F)c(Cl)c1OCC1(O)CC1 (centres unmarked) [Example 167, 6-{3-Chloro-2-fluoro-4-[(1-hydroxycyclopropyl)methoxy]-5-methylphenyl}-5-methyl-4,5-dihydro-2H-pyridazin-3-one]
8.64 | CC1CC(=O)NN=C1c1ccc(OCC2(O)CC2)c(Br)c1F (centres unmarked) [Example 168, 6-{3-Bromo-2-fluoro-4-[(1-hydroxycyclopropyl)methoxy]phenyl}-5-methyl-4,5-dihydro-2H-pyridazin-3-one]
8.40 | CC1CC(=O)NN=C1c1cc(F)c(OCC2(O)CC2)c(Br)c1 (centres unmarked) [Example 169, 6-{3-Bromo-5-fluoro-4-[(1-hydroxycyclopropyl)methoxy]phenyl}-5-methyl-4,5-dihydro-2H-pyridazin-3-one]
8.60 | CC1CC(=O)NN=C1c1cc(Cl)c(OCC2(O)CC2)c(Cl)c1 (centres unmarked) [Example 170, 6-{3,5-Dichloro-4-[(1-hydroxycyclopropyl)methoxy]phenyl}-5-methyl-4,5-dihydro-2H-pyridazin-3-one]
8.20 | Cc1cc(C2=NNC(=O)CC2C)c(F)c(C)c1OCC1(O)CC1 (centres unmarked) [Example 171, 6-{2-Fluoro-4-[(1-hydroxycyclopropyl)methoxy]-3,5-dimethylphenyl}-5-methyl-4,5-dihydro-2H-pyridazin-3-one]
8.28 | CC1CC(=O)NN=C1c1cc(F)c(OCC2(O)CC2)c(Cl)c1F (centres unmarked) [Example 172, 6-{3-Chloro-2,5-difluoro-4-[(1-hydroxycyclopropyl)methoxy]phenyl}-5-methyl-4,5-dihydro-2H-pyridazin-3-one]
8.38 | CC1CC(=O)NN=C1c1ccc(OCC2(O)CC2)c(Cl)c1O (centres unmarked) [Example 174, 6-{3-Chloro-2-hydroxy-4-[(1-hydroxycyclopropyl)methoxy]phenyl}-5-methyl-4,5-dihydro-2H-pyridazin-3-one]
8.39 | Cc1cc(C2=NNC(=O)CC2C)c(O)c(Cl)c1OCC1(O)CC1 (centres unmarked) [Example 175, 6-{3-Chloro-2-hydroxy-4-[(1-hydroxycyclopropyl)methoxy]-5-methylphenyl}-5-methyl-4,5-dihydro-2H-pyridazin-3-one]
8.04 | Cc1c(O)c(C2=NNC(=O)CC2C)cc(Cl)c1OCC1(O)CC1 (centres unmarked) [Example 176, 6-{5-Chloro-2-hydroxy-4-[(1-hydroxycyclopropyl)methoxy]-3-methylphenyl}-5-methyl-4,5-dihydro-2H-pyridazin-3-one]
8.40 | Cc1cc(C2=NNC(=O)CC2C)c(F)cc1OC(F)(F)CO (centres unmarked) [Example 177, 6-[4-(1,1-difluoro-2-hydroxyethoxy)-2-fluoro-5-methylphenyl]-5-methyl-4,5-dihydro-2H-pyridazin-3-one]
8.34 | Cc1c(OCCCO)ccc(C2=NNC(=O)C[C@H]2C)c1O [Example 178, (5R)-(−)-6-[2-hydroxy-4-(3-hydroxypropoxy)-3-methylphenyl]-5-methyl-4,5-dihydro-2H-pyridazin-3-one]
8.48 | Cc1c(OCC(C)(C)O)ccc(C2=NNC(=O)C[C@H]2C)c1O [Example 179, (5R)-(−)-6-[2-hydroxy-4-(2-hydroxy-2-methylpropoxy)-3-methylphenyl]-5-methyl-4,5-dihydro-2H-pyridazin-3-one]
8.41 | Cc1cc(C2=NNC(=O)C[C@H]2C)c(O)c(Cl)c1OCCCO [Example 181, (5R)-(−)-6-[3-chloro-2-hydroxy-4-(3-hydroxypropoxy)-5-methylphenyl]-5-methyl-4,5-dihydro-2H-pyridazin-3-one]
8.54 | C[C@@H]1CC(=O)NN=C1c1ccc(OCC(C)(C)O)c(Cl)c1O [Example 182, (5R)-(−)-6-[3-chloro-2-hydroxy-4-(2-hydroxy-2-methylpropoxy)phenyl]-5-methyl-4,5-dihydro-2H-pyridazin-3-one]

Compound | pIC50
Cc1cc(C2=NNC(=O)CC2C)cc(Cl)c1OCCC(C)O (centres unmarked) [Example 143, 6-[3-Chloro-4-(3-hydroxybutoxy)-5-methylphenyl]-5-methyl-4,5-dihydro-2H-pyridazin-3-one] | 8.16
CC1CC(=O)NN=C1c1ccc(OCC(C)(C)CCO)c(Cl)c1O (centres unmarked) [Example 146, 6-[3-chloro-2-hydroxy-4-(4-hydroxy-2,2-dimethylbutoxy)phenyl]-5-methyl-4,5-dihydro-2H-pyridazin-3-one] | 8.17
CCC(O)COc1ccc(C2=NNC(=O)CC2C)c(O)c1Cl (centres unmarked) [Example 163, 6-[3-Chloro-2-hydroxy-4-(2-hydroxybutoxy)phenyl]-5-methyl-4,5-dihydro-2H-pyridazin-3-one] | 8.28
C[C@@H]1CC(=O)NN=C1c1ccc(OCCCCO)c(Cl)c1O [Example 180, (5R)-(−)-6-[3-chloro-2-hydroxy-4-(4-hydroxybutoxy)phenyl]-5-methyl-4,5-dihydro-2H-pyridazin-3-one] | 8.19
